According to paper PMC11656837, “pH-Responsive Peptide Nanoparticles Deliver Macromolecules to Cells via Endosomal Membrane Nanoporation” (ACS Nano, 2024):

Tested on: HeLa cells
Assay: Cytosolic delivery of green fluorescent protein (confocal microscopy)
Format: cell-based, human
Settings: 25 μM peptide, 10 μM external GFP, overnight, 37 °C
Description: To validate the dextran delivery experiments, we also delivered two separate fluorescent proteins of ∼27 kDa molecular weight to the cytosol of two different cell lines using C16-D-pHD108 (see Figure 7). HeLa cells were incubated overnight with 10 μM green fluorescent protein (GFP), and Chinese Hamster Ovary (CHO) cells were incubated overnight with 3.5 μM yellow fluorescent protein (YFP), with and without 25 μM C16-D-pHD108. Just before imaging, external GFP and YFP were washed off and replaced with TAMRA-dextran (red) or fluorescent protein mTurquoise (blue), respectively, to mark the cell boundaries and extracellular spaces. […] These cells, especially those incubated with the higher 10 μM concentration of GFP, show endosomes with entrapped FP, just as we observed for dextran delivery. […] The apparent nuclear concentration of GFP in cells incubated with GFP but no peptide is indistinguishable from the background. […]
For fluorescent protein or fluorescein-(Fab)2 fragment delivery, HeLa cells were incubated at 37 °C overnight in the presence of GFP with and without C16-D-pHD108 and CHO cells were incubated at 37 °C overnight with YFP in the presence and absence of C16-D-pHD108. […] Quantitation of delivered protein was performed by comparing measured intensities from microscopy images of standard protein solutions of known concentrations.

CCCCCCCCCCCCCCCC(=O)NCC(=O)N[C@@H](C(=O)NCC(=O)N[C@H](CCC(=O)O)C(=O)N[C@@H](C(=O)N[C@H](CC(C)C)C(=O)N[C@H](Cc1c[nH]cn1)C(=O)N[C@H](CCC(=O)O)C(=O)N[C@H](CC(C)C)C(=O)N[C@H](C)C(=O)N[C@H](CCC(=O)O)C(=O)NCC(=O)N[C@H](CC(C)C)C(=O)N1CCC[C@@H]1C(=O)N[C@H](CCC(=O)O)C(=O)N[C@H](CC(C)C)C(=O)N[C@H](CCC(N)=O)C(=O)N[C@H](CCC(=O)O)C(=O)N[C@H](Cc1c[nH]c2ccccc12)C(=O)N[C@@H](C(=O)N[C@H](Cc1c[nH]cn1)C(=O)N[C@H](C)C(=O)N[C@H](C)C(=O)N[C@H](CCC(N)=O)C(=O)N[C@H](CCC(N)=O)C(=O)N[C@H](CC(C)C)C(N)=O)[C@H](C)CC)C(C)C)[C@H](C)CC [C16-D-pHD108]
GFP concentration delivered to cell cytosol, median: about 2 μM | GFP delivered to cytosol, median as percent of the external concentration: ~20%
